Measurements: patent US11390604B2 (Hoffmann-La Roche Inc., priority 2019, dated 2022)
Structures can show the parent of a compound that is named as a salt.

Each compound was assayed on Acinetobacter baumannii ATCC 17961 (assay: Antimicrobial susceptibility testing: 90% growth inhibitory concentration (IC90) determination). Settings: ATCC17961, Acinetobacter baumannii ATCC 17961, Iso-Sensitest broth, read-out: ATCC 17961 IC90.
Format: cell-based
Outline: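 Broth microdilution in Iso-Sensitest medium, twofold series (e.g. 50 to 0.097 μM final), ~5×10^5 CFU/ml inoculum, 35±2 °C. OD600 read every 20 min over 16 h. IC90 derived from growth inhibition during logarithmic phase.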

| Structure (SMILES) | IC90 |
| --- | --- |
| Cn1c(-c2cn(C3CCC3)nc2C(F)(F)F)cnc1C(=O)Nc1ccc(C(=O)N2CCN(C(=O)NC3CNC3)CC2)c(Cl)c1 [Example 150, N-(azetidin-3-yl)-4-[2-chloro-4-[[5-[1-cyclobutyl-3-(trifluoromethyl)pyrazol-4-yl]-1-methylimidazole-2-carbonyl]amino]benzoyl]piperazine-1-carboxamide] | 324 nM |
| Cn1c(-c2cn(C3CC3(F)F)nc2C(F)(F)F)cnc1C(=O)Nc1ccc(C(=O)N[C@H]2[C@@H]3CN(C(=O)N[C@@H]4CCC[C@@H]4N)C[C@@H]32)c(Cl)c1 (mixture of isomers) [Example 186, cis-N-[(1R,2S)-2-aminocyclopentyl]-6-[[2-chloro-4-[[5-[1-(2,2-difluorocyclopropyl)-3-(trifluoromethyl)pyrazol-4-yl]-1-methylimidazole-2-carbonyl]amino]benzoyl]amino]-3-azabicyclo[3.1.0]hexane-3-carboxamide, formate salt] | 150 nM |
| Cn1c(-c2cn(C(F)F)nc2C(F)(F)F)cnc1C(=O)Nc1ccc(C(=O)N2CCN(C(=O)C3CCNCC3)CC2)c(Cl)c1 [Example 116, N-[3-chloro-4-[4-(piperidine-4-carbonyl)piperazine-1-carbonyl]phenyl]-5-[1-(difluoromethyl)-3-(trifluoromethyl)pyrazol-4-yl]-1-methylimidazole-2-carboxamide;hydrochloride] | 487 nM |
| Cn1c(-c2cn(C3CC3)nc2C(F)(F)F)cnc1C(=O)Nc1ccc(C(=O)N2CCN(C(=O)C3CNC3)CC2)c(Cl)c1 [Example 224, N-(4-(4-(azetidine-3-carbonyl)piperazine-1-carbonyl)-3-chlorophenyl)-5-(1-cyclopropyl-3-(trifluoromethyl)-1H-pyrazol-4-yl)-1-methyl-1H-imidazole-2-carboxamide hydrochloride] | 256 nM |
| C#CCn1cc(-c2cnc(C(=O)Nc3ccc(C(=O)N[C@H]4[C@@H]5CN(C(=O)N[C@@H]6CNC[C@H]6O)C[C@@H]54)c(Cl)c3)n2C)c(C(F)(F)F)n1 [Example 384, (1R,5S,6s)-6-(2-chloro-4-(1-methyl-5-(1-(prop-2-yn-1-yl)-3-(trifluoromethyl)-1H-pyrazol-4-yl)-1H-imidazole-2-carboxamido)benzamido)-N-((3R,4R)-4-hydroxypyrrolidin-3-yl)-3-azabicyclo[3.1.0]hexane-3-carboxamide formate] | 64 nM |
| Cn1c(-c2cn(CC3CCC3)nc2C(F)(F)F)cnc1C(=O)Nc1ccc(C(=O)N[C@H]2[C@@H]3CN(C(=O)N[C@@H]4CNC[C@H]4O)C[C@@H]32)c(Cl)c1 [Example 388, (1R,5S,6s)-6-(2-chloro-4-(5-(1-(cyclobutylmethyl)-3-(trifluoromethyl)-1H-pyrazol-4-yl)-1-methyl-1H-imidazole-2-carboxamido)benzamido)-N-((3R,4R)-4-hydroxypyrrolidin-3-yl)-3-azabicyclo[3.1.0]hexane-3-carboxamide formate] | 170 nM |
| Cn1c(-c2cn(CCC3CC3)nc2C(F)(F)F)cnc1C(=O)Nc1ccc(C(=O)N2CCN(C(=O)C3CCNCC3)CC2)c(Cl)c1 [Example 352, N-(3-chloro-4-(4-(piperidine-4-carbonyl)piperazine-1-carbonyl)phenyl)-5-(1-(2-cyclopropylethyl)-3-(trifluoromethyl)-1H-pyrazol-4-yl)-1-methyl-1H-imidazole-2-carboxamide hydrochloride] | 458 nM |
| Cn1c(-c2cn(CC3CCC3)nc2C(F)(F)F)cnc1C(=O)Nc1ccc(C(=O)N2CCN(C(=O)[C@H]3C[C@@H](N)C3)CC2)c(Cl)c1 [Example 295, rac-N-(4-(4-((1s,3s)-3-aminocyclobutane-1-carbonyl)piperazine-1-carbonyl)-3-chlorophenyl)-5-(1-(cyclobutylmethyl)-3-(trifluoromethyl)-1H-pyrazol-4-yl)-1-methyl-1H-imidazole-2-carboxamide hydrochloride] | 364 nM |
| CCc1cc(NC(=O)c2ncc(-c3cn(Cc4cccnc4)nc3C(F)(F)F)n2C)ccc1C(=O)N1CCN(C(=O)C2CCN(C)CC2)CC1 [Example 158, N-[3-ethyl-4-[4-(1-methylpiperidine-4-carbonyl)piperazine-1-carbonyl]phenyl]-1-methyl-5-[1-(pyridin-3-ylmethyl)-3-(trifluoromethyl)pyrazol-4-yl]imidazole-2-carboxamide;formic acid] | 1200 nM |
| Cn1c(-c2cn(C3CC3)nc2C(F)(F)F)cnc1C(=O)Nc1ccc(C(=O)N2CCCC(CN)C2)c(Cl)c1 (stereo not shown) [Example 277, N-[4-[3-(aminomethyl)piperidine-1-carbonyl]-3-chlorophenyl]-5-[1-cyclopropyl-3-(trifluoromethyl)pyrazol-4-yl]-1-methylimidazole-2-carboxamide;hydrochloride] | 343 nM |
| Cn1c(-c2cn(C3CC3(F)F)nc2C(F)(F)F)cnc1C(=O)Nc1ccc(C(=O)NC2[C@H]3CN(C(=O)N[C@H]4CCNC4)C[C@@H]23)c(Cl)c1 (mixture of isomers) [Example 189] | 167 nM |
| Cn1c(-c2cn(C3CCN(C4CC4)C3=O)nc2C(F)(F)F)cnc1C(=O)Nc1ccc(C(=O)N2CCN(C(=O)C3CCNCC3)CC2)c(Cl)c1 (stereo not shown) [Example 26, N-(3-chloro-4-(4-(piperidine-4-carbonyl)piperazine-1-carbonyl)phenyl)-5-(1-(1-cyclopropyl-2-oxopyrrolidin-3-yl)-3-(trifluoromethyl)-1H-pyrazol-4-yl)-1-methyl-1H-imidazole-2-carboxamide formate] | 1910 nM |
| Cn1c(-c2cn(CC3CCC3)nc2C(F)(F)F)cnc1C(=O)Nc1ccc(C(=O)N2CCN(C(=O)[C@@H]3C[C@@H](O)CN3)CC2)c(Cl)c1 [Example 335, N-(3-chloro-4-(4-((2S,4R)-4-hydroxypyrrolidine-2-carbonyl)piperazine-1-carbonyl)phenyl)-5-(1-(cyclobutylmethyl)-3-(trifluoromethyl)-1H-pyrazol-4-yl)-1-methyl-1H-imidazole-2-carboxamide bis(2,2,2-trifluoroacetate)] | 426 nM |
| Cn1c(-c2cn(Cc3ccn[nH]3)nc2C(F)(F)F)cnc1C(=O)Nc1ccc(C(=O)N2CCN(C(=O)C3CCNCC3)CC2)c(Cl)c1 [Example 100, N-[3-chloro-4-[4-(piperidine-4-carbonyl)piperazine-1-carbonyl]phenyl]-1-methyl-5-[1-(1H-pyrazol-5-ylmethyl)-3-(trifluoromethyl)pyrazol-4-yl]imidazole-2-carboxamide] | 1030 nM |
| Cn1c(-c2cn(Cc3cccnc3)nc2C(F)(F)F)cnc1C(=O)Nc1ccc(C(=O)N2CCN(C(=O)C3(O)CCCNC3)CC2)c(Cl)c1 (stereo not shown) [Example 75, N-[3-chloro-4-[4-(3-hydroxypiperidine-3-carbonyl)piperazine-1-carbonyl]phenyl]-1-methyl-5-[1-(pyridin-3-ylmethyl)-3-(trifluoromethyl)pyrazol-4-yl]imidazole-2-carboxamide;hydrochloride] | 542 nM |
| Cn1c(-c2cn(CC3CC3)nc2C(F)(F)F)cnc1C(=O)Nc1ccc(C(=O)N2CCN(C(=O)C3CNC3)CC2)c(Cl)c1 [Example 208, N-(4-(4-(azetidine-3-carbonyl)piperazine-1-carbonyl)-3-chlorophenyl)-5-(1-(cyclopropylmethyl)-3-(trifluoromethyl)-1H-pyrazol-4-yl)-1-methyl-1H-imidazole-2-carboxamide] | 226 nM |
| C#CCn1cc(-c2cnc(C(=O)Nc3ccc(C(=O)N4CCN(C(=O)N5CC(C)(N)C5)CC4)c(Cl)c3)n2C)c(C(F)(F)F)n1 [Example 81, N-[4-[4-(3-amino-3-methylazetidine-1-carbonyl)piperazine-1-carbonyl]-3-chlorophenyl]-1-methyl-5-[1-prop-2-ynyl-3-(trifluoromethyl)pyrazol-4-yl]imidazole-2-carboxamide] | 227 nM |
| Cn1c(-c2cn(C3CC3(F)F)nc2C(F)(F)F)cnc1C(=O)Nc1ccc(C(=O)N2C[C@H]3CNC[C@@H]3C2)c(Cl)c1 (mixture of isomers) [Example 329, rac-N-(3-chloro-4-((3aR,6aR)-octahydropyrrolo[3,4-c]pyrrole-2-carbonyl)phenyl)-5-(1-(2,2-difluorocyclopropyl)-3-(trifluoromethyl)-1H-pyrazol-4-yl)-1-methyl-1H-imidazole-2-carboxamide formate] | 420 nM |
| Cn1c(-c2cn(CC(F)F)nc2C(F)(F)F)cnc1C(=O)Nc1ccc(S(=O)(=O)N2CCNCC2)cc1 [Example 244, 5-(1-(2,2-difluoroethyl)-3-(trifluoromethyl)-1H-pyrazol-4-yl)-1-methyl-N-(4-(piperazin-1-ylsulfonyl)phenyl)-1H-imidazole-2-carboxamide hydrochloride] | 287 nM |
| CN1CCC(C(=O)N2CCN(C(=O)c3ccc(NC(=O)c4ncc(-c5cn(CC#N)nc5C(F)(F)F)n4C)cc3Cl)CC2)CC1 [Example 15, N-(3-chloro-4-(4-(1-methylpiperidine-4-carbonyl)piperazine-1-carbonyl)phenyl)-5-(1-(cyanomethyl)-3-(trifluoromethyl)-1H-pyrazol-4-yl)-1-methyl-1H-imidazole-2-carboxamide] | 558 nM |
| Cn1c(-c2cn(C3CC3(F)F)nc2C(F)(F)F)cnc1C(=O)Nc1ccc(C(=O)NC2[C@H]3CN(C(=O)N[C@H]4C[C@@H](N)C4)C[C@@H]23)c(Cl)c1 (stereo partly drawn) [Example 265, cis-N-(3-aminocyclobutyl)-6-[[2-chloro-4-[[5-[1-(2,2-difluorocyclopropyl)-3-(trifluoromethyl)pyrazol-4-yl]-1-methylimidazole-2-carbonyl]amino]benzoyl]amino]-3-azabicyclo[3.1.0]hexane-3-carboxamide, formate salt] | 328 nM |

Same assay, conditions: Acinetobacter baumannii, ATCC17961, read-out: ATCC 17961 IC90, Acinetobacter baumannii ATCC 17961, Iso-Sensitest broth

| Structure (SMILES) | IC90 |
| --- | --- |
| Cn1c(-c2cn(CC3CC(F)(F)C3)nc2C(F)(F)F)cnc1C(=O)Nc1ccc(C(=O)N2CCN(C(=O)N[C@H]3C[C@@H](N)C3)CC2)c(Cl)c1 [Example 293, rac-N-((1s,3s)-3-aminocyclobutyl)-4-(2-chloro-4-(5-(1-((3,3-difluorocyclobutypmethyl)-3-(trifluoromethyl)-1H-pyrazol-4-yl)-1-methyl-1H-imidazole-2-carboxamido)benzoyl)piperazine-1-carboxamide hydrochloride] | 363 nM |
